Measurements published in paper PMC10846744, “Cathelicidin peptide analogues inhibit EV71 infection through blocking viral entry and uncoating” (PLOS Pathogens, 2024).
Where no end group is shown, it is not given here.

Assays:
[1] = system: mouse-adapted EV71 (mEV71); experiment: mEV71 infection inhibition in RD cells; assay type: cell-based, enterovirus 71 (EV71); conditions: mEV71 pre-incubated with LL-18 1 hr, titer 24 h.p.i (S5B Fig)
Protocol: Supplementary file ppat.1011967.s005.tif: S5 Fig LL-18 inhibits mEV71 infection in vivo. (A) 6-day-old ICR mice were infected with parental EV71 or mouse-adapted virus (mEV71) and the mice survival rate was determined. (B) RD cells infected with mEV71 pre-incubated with PBS or LL-18 for 1 hr were determined for virus titer 24 h.p.i. ***, P<0.001. (C) ICR mice infected with mEV71 or mEV71 pre-incubated with the indicated amount of LL-18 were sacrificed at 1 d.p.i. and viral titers from muscle were determined. ns, not significant; ***, P<0.001. (TIF) Click here for additional data file.

[2] = system: EV71 P30 virus; experiment: Resistance induction assay (30 passages); assay type: cell-based, enterovirus 71 (EV71); conditions: 20 passages at 0.9 μM then 10 at 1.5 μM LL-18; 1.5 μM LL-18 pre-incubation 1 h, RD cell viability 24 h.p.i
Protocol: (A) Diagram of resistance induction assay. (B) RD cells infected with parental EV71 or P30 with or without 1.5 μM LL-18 pre-incubation were tested for cell viability 24 h.p.i. ns, not significant; ***, P<0.001.
Resistance induction assay was conducted as previously reported. Briefly, virus was first successively passaged in RD cells for 20 generations in the presence of a lower concentration of LL-18 (0.9 μM). The progeny virus was then passaged for another 10 generations with 1.5 μM LL-18, and the progeny virus was designated as P30. The parental EV71 and P30 with the same titer were pre-incubated with 1.5 μM LL-18 for 1 h and then tested for cell viability 24 h.p.i.

[3] = system: EV71 virus; experiment: Time-of-addition study; assay type: cell-based, enterovirus 71 (EV71)
Protocol: Fig 2 LL-18 and FF-18 inhibit EV71 infection at the early stages of infection. (A-B) NanoLuc-EV71 reporter virus (A) or EV71 virus (MOI = 1, B) was pre-incubated with 1.5 μM LL-18 or FF-18 for 1 hr before they were used to infect RD cells. Luciferase (A) or viral RNA (B) was determined at indicated time points. Viral RNAs were normalized to mock treated cells at 1 h.p.i. ***, P<0.001. (C-E) EV71 virus (MOI = 1) was either pre-incubated with 1.5 μM LL-18 before infection (-2 and -1 time points), added simultaneously with LL-18 (0 time point) or LL-18 was added at indicated time points post-infection (1, 2, 4, 7 time points) and viral VP1 expression (C), cell viability (D), or viral titer (E) was determined 24 h.p.i. ns, not significant; **, P<0.01; ***, P<0.001. (F-H) EV71 virus (MOI = 1) was either pre-incubated with 1.5 μM FF-18 before infection (-2 and -1 time points), added simultaneously with FF-18 (0 time point) or FF-18 was added at indicated time points post-infection (1, 2, 4, 7 time points) and viral VP1 expression (F), cell viability (G), or viral titer (H) was determined 24 h.p.i. ns, not significant; **, P<0.01; ***, P<0.001.
Synthetic peptides were purchased from Bioyears Co. Ltd. (Wuhan, China) with purity of more than 95% and dissolved in PBS. […] Cell viability, viral titer, or viral protein expression was determined 24 h.p.i. […]

[4] = system: CVB5 virus; experiment: 1H NMR titration of peptide with CVB5 virus; assay type: binding, coxsackievirus B5; conditions: molar ratio peptide to virus 90:1, 800 MHz, 298k
Protocol: The NMR titrations were performed on a Bruker 800 MHz (Avance NEO) spectrometer equipped with cryo-probe. The molar ratio of the peptide to the virus was 90:1. The experiments were recorded using zgespg pulse for 128 scans at 298k and the results were analyzed by Topspin.

FRKSKEKIGKLFKRIVQRILDFLRNLV [LL-18] was tested, and the “inhibition of mEV71 infection in RD cells (virus titer)” value [1] was “could still inhibit the infection of this mEV71 strain in RD cells”, the “susceptibility of P30 virus to LL-18” value [2] was “still as susceptible to LL-18 as the parental virus” and the “inhibition of VP1 expression, virus-induced cell death, virus titer; peptide added after virus infection” value [3] was “little inhibition”. For the same sequence, the “inhibition of VP1 expression, virus-induced cell death, virus titer; peptide added before virus infection” value [3] was “Potent inhibition” and the “interaction of peptide with CVB5 virus by 1H 1D NMR (amide region)” value [4] was “little effect on the spectra of peptides”.
